Entries after “also recorded” stand apart in the source; their conditions may differ. Ends that are not written are not given here. Peptide text beside a SMILES is read from it.
What was measured:
[1] = tested on: CRHR1 and CRHR2; conditions: cited from earlier work
Source text: It has been well-documented that the roles of CRH-related peptides are mediated by two G protein-coupled receptors, namely CRH receptor 1 (CRHR1) and CRH receptor 2 (CRHR2), which share ~68% amino acid identity with each other ([6], [21], [23]). However, these neuropeptides have distinct preference for these two receptors.

[2] = tested on: pituitary; conditions: cited from earlier work
Source text: However, UCN1 expression could not be detected in the hypothalamus and pituitary stalk ([10], [11]), and the selective receptors for UCN2 and UCN3 were not detected in the pituitary ([12]–[14]), hinting that the actions of ...

[3] = tested on: pituitary; conditions: cited from earlier work; remark: listed apart in the source
Source text: (§1) The relatively high potency of cCRH2 in activating cCRHR2 led us to examine whether like cCRH, cCRH2 can stimulate TSH expression in the chicken pituitary (Figure 8). […] Our finding raises a new concept that apart from CRH, TRH and GCG-like peptide (GCGL) [which are re ...

[4] = target: T1, chicken CRHR1 (cCRHR1) (Gallus gallus, UniProt Q90812); assay: pGL3-CRE-luciferase reporter assay in CHO cells expressing cCRHR1; type: cell-based; conditions: CHO cells transiently expressing cCRHR1; peptide 10^−12-10^−6M, 6 h; luciferase as fold of untreated control; N = 3 replicates
T1 construct: expressed in transfected cells; host or cells: CHO cells, transient transfection (the control used the empty pcDNA3.1(+) vector)
T1 sequence (Q90812 29-420): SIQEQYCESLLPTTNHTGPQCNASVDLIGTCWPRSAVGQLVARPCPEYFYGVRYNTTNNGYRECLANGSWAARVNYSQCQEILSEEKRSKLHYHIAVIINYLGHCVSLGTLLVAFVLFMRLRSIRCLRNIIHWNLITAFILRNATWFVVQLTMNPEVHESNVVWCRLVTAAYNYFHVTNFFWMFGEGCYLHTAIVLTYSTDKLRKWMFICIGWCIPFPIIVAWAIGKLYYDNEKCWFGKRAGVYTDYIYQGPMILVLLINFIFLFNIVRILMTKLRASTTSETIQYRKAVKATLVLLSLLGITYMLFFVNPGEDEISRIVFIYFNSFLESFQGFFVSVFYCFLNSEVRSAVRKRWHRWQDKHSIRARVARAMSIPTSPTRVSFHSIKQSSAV
Protocol: CHO cells were cultured in Dulbecco's Modified Eagle's Medium (DMEM) supplemented with 10% (vol/vol) fetal bovine serum, 100 U/ml penicillin G, and 100 µg/ml streptomycin (HyClone) in a 100 mm dish (Corning) and incubated at 37°C with 5% CO2. As described in our previous study ([35]), the functionality of cCRH2 was examined in CHO cells transiently expressing CRHR1 or CRHR2 by the pGL3-CRE-luciferase reporter system, which was utilized to monitor receptor-mediated activation of the intracellular cAMP/PKA signaling pathway. The luciferase activities in each treatment group were expressed as relative fold increase as compared with that of respective control groups (i.e., without peptide treatment).

[5] = tested on: chicken pituitary; conditions: cited from earlier work
Source text: as §1

corticotropin-releasing hormone [CRH]
activation of both CRH receptors in chickens (in words) [1]: equipotent activation of both receptors; also recorded: equipotent in activating both receptors
affinity for CRHR1 versus CRHR2 (in words) ([1]; mammals, Xenopus and zebrafish): higher affinity to CRHR1 than to CRHR2
ACTH secretion and synthesis from the pituitary (in words) [2]: stimulates adrenocorticotropic hormone (ACTH) secretion and synthesis from the pituitary
pituitary TSH secretion and/or expression (in words) ([3]; non-mammalian vertebrates, including birds, amphibians and reptiles): elevate pituitary thyroid stimulating hormone (TSH) secretion and/or expression
pituitary TSH secretion and synthesis (in words) ([3]; some non-mammalian vertebrates including chickens): responsible for stimulating pituitary TSH secretion and synthesis

CC[C@H](C)[C@H](NC(=O)[C@H](CO)NC(=O)[C@H](CCC(N)=O)NC(=O)[C@H](CC(C)C)NC(=O)[C@H](CC(C)C)NC(=O)[C@H](CC(C)C)NC(=O)[C@H](CCCCN)NC(=O)[C@H](CC(N)=O)NC(=O)[C@H](CO)NC(=O)[C@H](CC(C)C)NC(=O)[C@H](C)NC(=O)[C@H](CCCCN)NC(=O)[C@H](CCC(N)=O)NC(=O)[C@H](C)NC(=O)[C@H](CC(C)C)NC(=O)[C@H](CCCNC(=N)N)NC(=O)[C@H](CCC(=O)O)NC(=O)[C@H](CCC(=O)O)NC(=O)[C@H](CCCNC(=N)N)NC(=O)[C@H](CO)NC(=O)[C@H](CCSC)NC(=O)[C@H](CCC(=O)O)NC(=O)[C@H](CC(C)C)NC(=O)[C@H](Cc1ccccc1)NC(=O)[C@H](CCC(=O)O)NC(=O)[C@H](CCCNC(=N)N)NC(=O)[C@H](CC(C)C)NC(=O)[C@H](CC(C)C)NC(=O)[C@H](Cc1c[nH]cn1)NC(=O)[C@H](Cc1ccccc1)NC(=O)[C@@H](NC(=O)[C@H](CC(C)C)NC(=O)[C@H](CC(=O)O)NC(=O)[C@H](CC(C)C)NC(=O)[C@H](CO)NC(=O)[C@H](CC(N)=O)NC(=O)[C@@H]1CCCN1C(=O)[C@H](CCCCN)NC(=O)CNC(=O)[C@@H](N)CCC(=O)O)[C@@H](C)O)C(N)=O [cCRH2] (H-EGKPNSLDLTFHLLREFLEMSREERLAQKALSNKLLLQSI-NH2)
EC50 [4]: 0.0286 µM

urocortin II (IVLSLDVPIGLLQILLEQARARAAREQATTNARILARVGHC; Urocortin-2; UniProt Q96RP3 72-112, looked up) [UCN2, CRH family peptide urocortin II]
affinity/selectivity for CRHR1 and CRHR2 (in words) [1]: highly selective for CRHR2

CC[C@H](C)[C@H](NC(=O)[C@@H](NC(=O)[C@H](CCC(=O)O)NC(=O)[C@H](CCSC)NC(=O)[C@H](CC(C)C)NC(=O)[C@H](CCCCN)NC(=O)[C@H](CCCNC(=N)N)NC(=O)[C@H](CC(N)=O)NC(=O)[C@H](CO)NC(=O)[C@H](Cc1c[nH]cn1)NC(=O)[C@H](C)NC(=O)[C@H](CCC(N)=O)NC(=O)[C@H](CCC(N)=O)NC(=O)[C@H](C)NC(=O)[C@H](CC(C)C)NC(=O)[C@H](CCC(N)=O)NC(=O)[C@H](CCC(=O)O)NC(=O)[C@H](C)NC(=O)[C@H](CCCNC(=N)N)NC(=O)[C@H](C)NC(=O)[C@H](CCSC)NC(=O)[C@H](CCC(=O)O)NC(=O)[C@H](CC(C)C)NC(=O)[C@@H](NC(=O)[C@H](CCC(=O)O)NC(=O)[C@H](CCCNC(=N)N)NC(=O)[C@H](CC(C)C)NC(=O)[C@H](CC(C)C)NC(=O)[C@H](Cc1c[nH]cn1)NC(=O)[C@H](Cc1ccccc1)NC(=O)[C@@H](NC(=O)[C@H](CC(C)C)NC(=O)[C@H](CC(=O)O)NC(=O)[C@H](CC(C)C)NC(=O)[C@H](CO)NC(=O)[C@@H](NC(=O)[C@@H]1CCCN1C(=O)[C@@H]1CCCN1C(=O)[C@H](CCC(=O)O)NC(=O)[C@H](CCC(=O)O)NC(=O)[C@@H](N)CO)[C@@H](C)CC)[C@@H](C)O)C(C)C)[C@@H](C)CC)C(N)=O [cCRH]
EC50 [4]: 0.0003 µM

urocortin III (FTLSLDVPTNIMNLLFNIAKAKNLRAQAAANAHLMAQI; ends and bridges not checked; UniProt Q969E3 120-157, looked up) [UCN3, CRH family peptide urocortin III]
affinity/selectivity for CRHR1 and CRHR2 (in words) [1]: highly selective for CRHR2

GCG-like peptide [GCGL]
chicken pituitary TSH expression/secretion (in words) [5]: reported to stimulate chicken pituitary TSH expression/secretion

urocortin I (DNPSLSIDLTFHLLRTLLELARTQSQRERAEQNRIIFDSV; ends and bridges not checked; UniProt P55089 83-122, looked up) [UCN1, CRH family peptide urocortin I]
affinity/selectivity for CRHR1 and CRHR2 (in words) [1]: binds to them with similar affinities
ACTH-releasing activity in vitro (in words) ([2]; in vitro): potent ACTH-releasing activity in vitro

Reference: PMC6727040, “Identification of a Novel Functional Corticotropin-Releasing Hormone (CRH2) in Chickens and Its Roles in Stimulating Pituitary TSHβ Expression and ACTH Secretion” (Frontiers in Endocrinology, 2019)
